Laboratory results reported in PubChem BioAssay AID206 (DTP/NCI, 2004).
“And” between values parts separate entries of the source, which are not always exact repeats. Equal values may be shown once. Records with an inconclusive call do not appear. Starred links: 1 amine or outer side, 2 acyl side, 3 side chain; linkers in the order of their positions; H or OH if unused. Non-standard residues stand in square brackets, D forms with d. Residues, ends and D or L forms follow the SMILES beside them. *: point of attachment. X2 = CCC(=O)CC1CC(C)CC(C(=O)[*:2])N1[*:1]; X1 = CCCCCCCCC(C)C(=O)*; Aib = CC(C)(N)C(=O)O; X3 = CC(CN(C)CCO)N*

Test system: nude mice, HT29 intrarenal xenograft, tumor weight T/C
Test: NCI In Vivo Anticancer Drug Screen. Data for tumor model HT29;CX-1 Human Adenocarcinoma (MER+) (intrarenal inoculation) in NU/NU Swiss (nude) mice
Settings: endpoint: mean tumor weight change, higher = larger tumour
Summary of the method: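 T/C = treated-group value ÷ vehicle-group value, using tumor size or survival.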

[1] = dose: 25.0 mg/kg/injection, schedule: Q01DX010 (sc), vehicle: saline
[2] = dose: 50.0 mg/kg/injection, schedule: Q01DX010 (sc), vehicle: saline
[3] = dose: 12.5 mg/kg/injection, schedule: Q01DX010 (sc), vehicle: saline
[4] = dose: 25.0 mg/kg/injection, schedule: Q04DX004 (sc), vehicle: Klucel (hydroxypropylcellulose) (HPC)
[5] = dose: 50.0 mg/kg/injection, schedule: Q04DX004 (sc), vehicle: Klucel (hydroxypropylcellulose) (HPC)
[6] = dose: 100.0 mg/kg/injection, schedule: Q04DX004 (sc), vehicle: Klucel (hydroxypropylcellulose) (HPC)
[7] = dose: 25.0 mg/kg/injection, schedule: Q04DX004 (sc), vehicle: saline
[8] = dose: 50.0 mg/kg/injection, schedule: Q04DX004 (sc), vehicle: saline
[9] = dose: 100.0 mg/kg/injection, schedule: Q04DX004 (sc), vehicle: saline

Structure (SMILES): CN(CCN(C)C(=O)CCOS(C)(=O)=O)C(=O)CCOS(C)(=O)=O
- T/C (dose: 75.0 mg/kg/injection, schedule: Q04DX004 (sc), vehicle: saline): 64 % of control
- T/C (dose: 150.0 mg/kg/injection, schedule: Q04DX004 (sc), vehicle: saline): 36 % of control

Structure (SMILES): O=NN(CCCl)C(=O)NC1[C@H](O)CCC[C@@H]1O (some centres undefined)
- T/C (dose: 10.0 mg/kg/injection, schedule: Q04DX004 (sc), vehicle: saline): 90 % of control

Structure (SMILES): CC1(C)OC(=O)N(CO)C1=O
- T/C [1]: 95 % of control
- T/C [2]: 118 % of control
- T/C (dose: 200.0 mg/kg/injection, schedule: Q01DX010 (sc), vehicle: saline): 194 % of control

Structure (SMILES): COc1cccc2c1C(=O)c1c(O)c3c(c(O)c1C2=O)C[C@H](O)C[C@@H]3OC1CC(N)C(O)C(C)O1 (some centres undefined)
- T/C [3]: 114 % of control
- T/C [1]: 41 % of control
- T/C [2]: 87 % of control

Structure (SMILES): CS(C)=O
- T/C (dose: 750.0 mg/kg/injection, schedule: Q01DX010 (sc), vehicle: saline): 36 % of control
- T/C (dose: 1500.0 mg/kg/injection, schedule: Q01DX010 (sc), vehicle: saline): 31 % of control
- T/C (dose: 3000.0 mg/kg/injection, schedule: Q01DX010 (sc), vehicle: saline): 89 % of control
- T/C (dose: 6000.0 mg/kg/injection, schedule: Q01DX010 (sc), vehicle: saline): 75 % of control

Structure (SMILES): CCOC(=O)Nc1cc2c(c(N)n1)N=C(c1ccccc1)CN2
- T/C (dose: 12.5 mg/kg/injection, schedule: Q04DX004 (sc), vehicle: saline with Tween-80): 90 % of control
- T/C (dose: 25.0 mg/kg/injection, schedule: Q04DX004 (sc), vehicle: saline with Tween-80): 104 % of control

Structure (SMILES): O=CC(O)C(O)C(O)C(O)C(=O)O.[NH-]C1CCCCC1[NH-].[Pt+2] (centres undefined)
- T/C (dose: 9.38 mg/kg/injection, schedule: Q04DX004 (sc), vehicle: suspension in saline): 44 % of control
- T/C (dose: 18.75 mg/kg/injection, schedule: Q04DX004 (sc), vehicle: suspension in saline): 62 % of control

Structure (SMILES): CCNC(=O)OCc1c(COC(=O)NCC)c(-c2ccc(Cl)c(Cl)c2)n2c1CCC2
- T/C (dose: 75.0 mg/kg/injection, schedule: Q04DX004 (sc), vehicle: saline with Tween-80): 5 % of control and 19 % of control
- T/C (dose: 150.0 mg/kg/injection, schedule: Q04DX004 (sc), vehicle: saline with Tween-80): 66 % of control

Structure (SMILES): CN(C)N=Nc1ccccc1
- T/C [4]: 93 % of control
- T/C [5]: 62 % of control
- T/C [6]: 84 % of control

Structure (SMILES): Cc1cn(C2CC(F)C(CO)O2)c(=O)[nH]c1=O (centres undefined)
- T/C (dose: 100.0 mg/kg/injection, schedule: Q04DX004 (sc), vehicle: suspension in saline): 65 % of control
- T/C (dose: 200.0 mg/kg/injection, schedule: Q04DX004 (sc), vehicle: suspension in saline): 60 % of control
- T/C (dose: 400.0 mg/kg/injection, schedule: Q04DX004 (sc), vehicle: suspension in saline): 117 % of control
- T/C (dose: 800.0 mg/kg/injection, schedule: Q04DX004 (sc), vehicle: suspension in saline): 74 % of control

Structure (SMILES): O=C(NO)c1cc(O)c(O)c(O)c1
- T/C (dose: 200.0 mg/kg/injection, schedule: Q04DX004 (sc), vehicle: water): 83 % of control
- T/C (dose: 400.0 mg/kg/injection, schedule: Q04DX004 (sc), vehicle: water): 60 % of control
- T/C (dose: 800.0 mg/kg/injection, schedule: Q04DX004 (sc), vehicle: water): 56 % of control
- T/C (dose: 1600.0 mg/kg/injection, schedule: Q04DX004 (sc), vehicle: water): 71 % of control

Structure (SMILES): NC(C(=O)O)c1ccc(CBr)cc1 (centres undefined)
- T/C (dose: 50.0 mg/kg/injection, schedule: Q04DX004 (sc), vehicle: acid diluted with saline): 76 % of control
- T/C (dose: 100.0 mg/kg/injection, schedule: Q04DX004 (sc), vehicle: acid diluted with saline): 70 % of control
- T/C (dose: 200.0 mg/kg/injection, schedule: Q04DX004 (sc), vehicle: acid diluted with saline): 65 % of control
- T/C (dose: 400.0 mg/kg/injection, schedule: Q04DX004 (sc), vehicle: acid diluted with saline): 52 % of control

Structure (SMILES): OC(CCl)CN1CC[N+]2(CC1)CC[N+]1(CCN(CC(O)CCl)CC1)CC2 (centres undefined)
- T/C (dose: 32.0 mg/kg/injection, schedule: Q01DX010 (sc), vehicle: water): 245 % of control
- T/C (dose: 64.0 mg/kg/injection, schedule: Q01DX010 (sc), vehicle: water): 59 % of control
- T/C (dose: 128.0 mg/kg/injection, schedule: Q01DX010 (sc), vehicle: water): 108 % of control
- T/C (dose: 256.0 mg/kg/injection, schedule: Q01DX010 (sc), vehicle: water): 35 % of control

Structure (SMILES): OCC1OC(n2cnc3c(Cl)ncnc32)C(O)C1O (centres undefined)
- T/C (dose: 300.0 mg/kg/injection, schedule: Q04DX004 (sc), vehicle: saline): 94 % of control
- T/C (dose: 600.0 mg/kg/injection, schedule: Q04DX004 (sc), vehicle: saline): 84 % of control
- T/C (dose: 1200.0 mg/kg/injection, schedule: Q04DX004 (sc), vehicle: saline): 150 % of control

Structure (SMILES): CC(=O)C1=C(O)C2(O)C(=O)c3c(c(C)c4ccc(C)c(O)c4c3O)CC2C(N)C1=O (centres undefined)
- T/C [7]: 153 % of control
- T/C [8]: 173 % of control
- T/C [9]: 102 % of control
- T/C (dose: 200.0 mg/kg/injection, schedule: Q04DX004 (sc), vehicle: saline): 109 % of control

Structure (SMILES): CC1C=NNC1=O (centres undefined)
- T/C (dose: 200.0 mg/kg/injection, schedule: Q01DX010 (sc), vehicle: saline with Tween-80): 91 % of control
- T/C (dose: 400.0 mg/kg/injection, schedule: Q01DX010 (sc), vehicle: saline with Tween-80): 64 % of control
- T/C (dose: 800.0 mg/kg/injection, schedule: Q01DX010 (sc), vehicle: saline with Tween-80): 105 % of control

Structure (SMILES): CCC(=O)Sc1ccccc1C(=O)Nc1ccc(Cl)cc1
- T/C (dose: 300.0 mg/kg/injection, schedule: Q04DX004 (sc), vehicle: saline with Tween-80): 122 % of control
- T/C (dose: 600.0 mg/kg/injection, schedule: Q04DX004 (sc), vehicle: saline with Tween-80): 93 % of control
- T/C (dose: 1200.0 mg/kg/injection, schedule: Q04DX004 (sc), vehicle: saline with Tween-80): 103 % of control
- T/C (dose: 2400.0 mg/kg/injection, schedule: Q04DX004 (sc), vehicle: saline with Tween-80): 91 % of control

Structure (SMILES): CCCCCCCCC(C)C(=O)N1CCCC1C(=O)N1C(CC(=O)CC)CC(C)CC1C(=O)NC(C)C(=O)NC(C)(C)C(=O)NC(C)(C)C(=O)NC(C(=O)NC(C)C(=O)NC(C)(C)C(=O)NC(C)(C)C(=O)NC(C)CN(C)CCO)C(C)CC (centres undefined) (X1-P[X2]A[Aib][Aib]IA[Aib][Aib]-X3; configuration not given here)
- T/C (dose: 1.88 mg/kg/injection, schedule: Q04DX004 (sc), vehicle: Klucel (hydroxypropylcellulose) (HPC)): 94 % of control
- T/C (dose: 3.75 mg/kg/injection, schedule: Q04DX004 (sc), vehicle: Klucel (hydroxypropylcellulose) (HPC)): 59 % of control and 67 % of control

Structure (SMILES): CC[C@]1(O)C[C@H]2CN(CCc3c([nH]c4ccccc34)[C@@](C(=O)OC)(c3cc4c(cc3OC)N(C)[C@H]3[C@@](O)(C(=O)OC)[C@H](OC(C)=O)[C@]5(CC)C=CCN6CC[C@]43[C@@H]65)C2)C1
- T/C (dose: 0.25 mg/kg/injection, schedule: Q01DX010 (sc), vehicle: saline): 76 % of control
- T/C (dose: 0.5 mg/kg/injection, schedule: Q01DX010 (sc), vehicle: saline): 88 % of control
- T/C (dose: 1.0 mg/kg/injection, schedule: Q01DX010 (sc), vehicle: saline): 60 % of control

Structure (SMILES): O=C(C#Cc1ccccc1)c1ccccc1
- T/C (dose: 12.5 mg/kg/injection, schedule: Q04DX004 (sc), vehicle: Klucel (hydroxypropylcellulose) (HPC)): 71 % of control
- T/C [4]: 64 % of control
- T/C [5]: 88 % of control
- T/C [6]: 76 % of control

Structure (SMILES): OCCN1CCN(CC/C=C2/c3ccccc3Sc3ccc(C(F)(F)F)cc32)CC1
- T/C (dose: 5.0 mg/kg/injection, schedule: Q01DX010 (sc), vehicle: saline): 80 % of control
- T/C (dose: 10.0 mg/kg/injection, schedule: Q01DX010 (sc), vehicle: saline): 49 % of control
- T/C (dose: 20.0 mg/kg/injection, schedule: Q01DX010 (sc), vehicle: saline): 67 % of control
- T/C (dose: 40.0 mg/kg/injection, schedule: Q01DX010 (sc), vehicle: saline): 42 % of control

Structure (SMILES): O=S(=O)(CCl)OCCCl
- T/C (dose: 50.0 mg/kg/injection, schedule: Q04DX004 (sc), vehicle: saline with Tween-80): 163 % of control
- T/C (dose: 100.0 mg/kg/injection, schedule: Q04DX004 (sc), vehicle: saline with Tween-80): 105 % of control

Structure (SMILES): c1cc(-c2cc3ccc(C4=NCCN4)cc3[nH]2)ccc1C1=NCCN1
- T/C [7]: 84 % of control
- T/C [8]: 154 % of control
- T/C [9]: 124 % of control

Structure (SMILES): CC1(C)N=C(N)N=C(N)N1c1ccc(F)c(C(F)(F)F)c1
- T/C (dose: 3.12 mg/kg/injection, schedule: Q01DX010 (sc), vehicle: saline): 103 % of control
- T/C (dose: 6.25 mg/kg/injection, schedule: Q01DX010 (sc), vehicle: saline): 84 % of control
- T/C [3]: 49 % of control
- T/C [1]: 124 % of control
